For one test, the system named is P450RAI-2 transcripts. Briefly: Induction of P450RAI-2 transcripts in human cell lines (Northern blot, RT-PCR). The format is cell-based. The conditions noted are these: MCF-7 cells, 10^-6 M retinoid, 12 hours, northern blot. From the text:
HPK1a-ras (ras-transformed human keratinocyte), COS-1 (African green monkey kidney and V79 cells (Chinese Hamster lung) were maintained in DMEM supplemented with 10% FBS (5% for V79). WTE (human non-small cell lung carcinoma and SW900 (human non-small cell lung carcinoma) cells were maintained in RPMI supplemented with 10% FBS. SK-Luci-6 (human non-small cell lung carcinoma) and SK-MES-1 (human non-small cell lung carcinoma) cells in RPMI with 5% FBS. NB4 (human acute prmyelocytic leukemia-serived) cells were maintained in RPMI supplemented with 10% FBS and gentamicin ([…]) HeLa cells (human cervical carcinoma) were maintained in MEM supplemented with 10% FBS. Previous cell lines were supplemented with penicillin (50 units/ml) streptomycin (50 ug/ml) and fungizone (0.1% final concentration). MCF-7 cells (human breast epithelial adenocarcinoma) were grown in MEM supplemented with 10% FBS, insulin (10 ng/ml), sodium pyruvate (0.5 mM), non-essential amino acids (100 nM), L-glutamine (2 mM), penicillin (5 ug.ml), streptomycin (5 ug/ml), fungizone (200 ng/ml), and gentamicin ([…]). All reagents were supplied by Life Technologies, NY. Cells lines were maintained at 37° C. in an atmosphere of 5% CO2 and 95% air.
Gels were photographed under ultraviolet light and then blotted onto Hybond ECL nitrocellulose membrane (Amersham Pharmacia Biotech, UK) and fixed to the membrane by baking at 80° C. for 2 hours under vacuum. […] Full length P450RAI-1 and P450RAI-2 cDNA were labeled with α-[^32P]dATP using Prime-A-Gene Labeling System (Promega, WI). The blot was washed two times for 15 minutes in 2×SSC, 0.1% SDS at room temperature then for 15 minutes at 60° C. in 0.1×SSC, and 0.1% SDS and exposed at −70° C. for 19 hours to Kodak X-Omat AR film (Eastman Kodak Company, NY).
The regulation of P450RAI-2 expression by various retinoids was checked in three different human cell lines, SKMES, CALU-1 and MCF-7. […] The blot was washed as follows: 2×SSPE & 0.1% SDS two washes of 5 minutes each; 1×SSPE & 0.1% SDS one wash of 15 minutes at 65° C.; 0.1×SSPE & 0.1×SDS one wash of 15 minutes at 65° C.
The blot was washed as follows: 2×SSC & 0.1% SDS two washes of 5 minutes each at room temperature; 1×SSC & 0.1% SDS one wash of 15 minutes at 65° C.; 0.1×SSC & 0.1% SDS three washes of 15 minutes each at 65° C.
The blot was washed as follows: 2×SSPE & 0.1% SDS two washes of 5 minutes each; 1×SSPE & 0.1% SDS one wash of 15 minutes at 65° C.; 0.1×SSPE & 0.1×SDS one wash of 15 minutes at 65° C.
The final primer concentrations were 45 μM for the P450RAI-2 primers and 11.25 μM for the GAPDH-specific primers.

A further test has as its target T1, P450RAI-1 (Homo sapiens, UniProt O43174).
T1 sequence (O43174 1-497): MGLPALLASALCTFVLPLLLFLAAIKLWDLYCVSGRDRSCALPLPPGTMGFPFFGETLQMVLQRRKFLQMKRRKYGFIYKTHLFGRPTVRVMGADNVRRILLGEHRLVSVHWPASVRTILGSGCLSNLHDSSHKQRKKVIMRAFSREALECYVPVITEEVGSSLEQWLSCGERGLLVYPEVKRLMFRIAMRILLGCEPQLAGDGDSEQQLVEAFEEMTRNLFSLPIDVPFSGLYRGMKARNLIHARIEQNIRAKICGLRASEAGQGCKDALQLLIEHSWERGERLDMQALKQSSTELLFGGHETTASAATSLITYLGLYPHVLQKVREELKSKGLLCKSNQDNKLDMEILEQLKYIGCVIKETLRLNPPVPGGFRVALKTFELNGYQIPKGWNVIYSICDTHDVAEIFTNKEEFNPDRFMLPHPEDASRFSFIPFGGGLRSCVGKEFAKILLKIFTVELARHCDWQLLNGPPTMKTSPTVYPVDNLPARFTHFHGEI
Briefly: Competitive inhibition of [3H]all-trans-RA metabolism in COS-1 cells transfected with pcDNA3.1-P450RAI-1. On the set-up: expressed in transfected cells; host or cells: COS-1 (African green monkey kidney), transient. The conditions noted are these: COS-1 cells expressing P450RAI-1, 2 nM [3H]all-trans-RA. The format is cell-based. As to the method:
COS-1 cells were transfected with either pcDNA3.1-P450RAI-1 or pcDNA3.1-P450RAI-2 in 6-well tissue culture plates as described above. 48 hours post-transfection cells were harvested, pooled, washed with DMEM medium and replated into duplicate 48-well plates with 5×10^5 cells per well.

The target of test [1] is T2, P450RAI-2 (Homo sapiens, UniProt Q9NR63).
T2 sequence (Q9NR63 1-512): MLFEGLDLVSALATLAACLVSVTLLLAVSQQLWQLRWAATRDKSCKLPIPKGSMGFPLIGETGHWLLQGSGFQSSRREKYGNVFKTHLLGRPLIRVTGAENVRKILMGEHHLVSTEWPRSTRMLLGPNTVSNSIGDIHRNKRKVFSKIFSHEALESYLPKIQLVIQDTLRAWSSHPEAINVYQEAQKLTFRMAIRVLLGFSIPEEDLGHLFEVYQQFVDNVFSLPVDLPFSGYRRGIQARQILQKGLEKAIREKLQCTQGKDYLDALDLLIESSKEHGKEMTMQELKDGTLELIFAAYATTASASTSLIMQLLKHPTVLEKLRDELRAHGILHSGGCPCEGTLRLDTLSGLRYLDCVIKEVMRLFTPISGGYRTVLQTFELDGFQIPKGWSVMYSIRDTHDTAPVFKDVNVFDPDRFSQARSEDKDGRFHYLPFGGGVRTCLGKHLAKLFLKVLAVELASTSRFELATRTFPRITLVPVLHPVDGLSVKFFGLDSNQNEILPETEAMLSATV
The test can be described thus: Competitive inhibition of [3H]all-trans-RA metabolism in COS-1 cells transfected with pcDNA3.1-P450RAI-2. Also on record: The full-length human P450RAI-2 cDNA was cloned into the eukaryotic expression vector pcDNA 3.1; expressed in transfected cells; host or cells: COS-1 (African green monkey kidney), transient. The format is cell-based. The conditions noted are these: COS-1 cells expressing P450RAI-2, 2 nM [3H]all-trans-RA. From the text:
COS-1 cells were transfected with either pcDNA3.1-P450RAI-1 or pcDNA3.1-P450RAI-2 in 6-well tissue culture plates as described above.

In test [2] the test system is P450RAI-2. Briefly: P450RAI-2 expression in RAFT and psoriasis biopsy samples (Northern blot, RT-PCR). It is filed as cell-based, human. The protocol: Total RNA aliquots (10 μg) were electrophoresed on a 1.0% formaldehyde-agarose gel and a northern blot performed. The gel was photographed under ultraviolet light and then blotted on Hybond ECL nitrocellulose membrane (Amersham Pharmacia Biotech, UK) and fixed to the membrane by baking at 80° C. for 2 hours under vacuum. […] Three individual cDNA fragments were labeled with α-[^32P]dATP using the Prime-A-Gene Labeling System (Promega, WI). The probes were as follows; P450RAI-1 762-1217bp of SEQ ID NO:13, full length P450RAI-2 SEQ ID NO:4 and a human glyceraldehyde-3-phosphate dehydrogenase (GAPDH) PCR fragment. The blot was hybridized with P450RAI-2, washed two times for 5 minutes in 2×SSPE, 0.1% SDS at room temperature, then washed once at 65° C. for 10 minutes in 1×SSPE, 0.1% SDS and a final wash for 15 minutes at 65° C. in 0.1×SSPE, 0.1% SDS. The blot was exposed at −70° C. for 48 hours to Kodak X-Omat AR film (Eastman Kodak Company, NY). […] The blot was stripped by washing two times for 30 minutes in boiling 0.5% SDS and exposed to film overnight to ensure proper removal of probe. The above protocol was repeated for P450RAI-1 and GAPDH. The P450RAI-1 and GAPDH blots were exposed for 96 and 4 hours respectively.
The final primer concentrations were 45 μM for the P450RAI-1 and P450RAI-2 primers and 11.25 μM for the GAPDH-specific primers. Two separate sets of reactions were performed using the primer sets, P450RAI-1/GAPDH and P450RAI-2/GAPDH. […] The P450RAI-1, P450RAI-2 and GAPDH upstream and downstream amplification primers sets were 5′-[…]-3′ (SEQ ID NO: 35) and 5′-[…]-3′ (SEQ ID NO: 36), 5′-[…]-3′ (SEQ ID NO: 37) and 5′-[…]-3′ (SEQ ID NO: 38), 5′-[…]-3′ (SEQ ID NO: 39) and 5′-[…]-3′ (SEQ ID NO: 40) respectively. […] Both the Psoriasis samples show PCR products corresponding to P450RAI-2.

For `CC1=C(/C=C/C(C)=C\C=C\C(C)=C\C(=O)O)C(C)(C)CCC1` [9-cis-RA, 9-cis retinoic acid], in the test on P450RAI-2 transcripts, the “Induction of P450RAI-2 expression” value is “not clear”. The “Effectiveness as competitor of all-trans-RA metabolism” value (“Effectiveness as competitor” for short) at P450RAI-1 and on P450RAI-2 [1] was “less effective than all-trans-RA” each time.
`CC1=C(/C=C/C(C)=C/C=C/C(C)=C/CO)C(C)(C)CCC1` [Retinol, retinol]: the “Effectiveness as competitor” value on P450RAI-1 and on P450RAI-2 [1] was “less effective competitors” in each case.
Turning to `CCOC(=O)c1ccc(C#Cc2ccc3c(c2)C(C)(C)CCS3)nc1` [Tazarotene], the P450RAI-2 expression result is “appears to also be expressed” in the test with P450RAI-2 [2] (Day 14 Psoriasis Biopsy sample, northern blot); “expression of P450RAI-2” in the test with P450RAI-2 [2] (RAFT sample, RT-PCR); “induced” with P450RAI-2 [2] (RAFT sample, northern blot).
Consider `CC1=C(/C=C/C(C)=C/C=C/C(C)=C/C=O)C(C)(C)CCC1` [retinal], for which the “Effectiveness as competitor” value at P450RAI-1 and at P450RAI-2 [1] was “less effective competitors” each time.

(Values after patent publication US7579329B2, “P450RAI-2 (P450 cytochrome 26B), encoding nucleic acid molecules and methods and uses thereof” (Cytochroma Inc., priority 1999, dated 2009).)
